Test system: 475296-252-R-J1-PDC spheroid viability
Test: Anticancer human tumor 475296-252-R-J1-PDC patient-derived rectal carcinoma cell line growth inhibition [PI3K]
Conditions: spheroids with HUVEC and MSC; for IC50: curve of first compound; for viability, T/C: stronger effect = lower value
In short: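 Spheroid viability read-out. Co-cultures contained the tumor line plus HUVEC and human MSCs. Each agent was paired with a PI3K inhibitor (inavolisib, alpelisib, duvelisib, copanlisib) across half-log dilutions starting at clinical Cmax, or at 10 microM when Cmax was unknown.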
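Note: spheroids exposed to agents for seven days before readout.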

CNC(=O)c1ccc(N2C(=S)N(c3ccc(C#N)c(C(F)(F)F)c3)C(=O)C2(C)C)cc1F + Cc1nc(NC(=O)N2CCCC2C(N)=O)sc1-c1ccnc(C(C)(C)C(F)(F)F)c1
IC50 (second compound 0.0316 µM): > 10000 nM | IC50 (second compound 0.1 µM): > 10000 nM | IC50 (second compound 0.316 µM): > 10000 nM | IC50 (second compound 1 µM): > 10000 nM | IC50 (second compound 3.16 µM): > 10000 nM | IC50 (second compound 10 µM): > 10000 nM | viability, T/C (second compound 0.0316 µM, first compound 0.0316 µM): 101% | viability, T/C (second compound 0.0316 µM, first compound 0.1 µM): 88.1% | viability, T/C (second compound 0.0316 µM, first compound 0.316 µM): 98.8% | viability, T/C (second compound 0.0316 µM, first compound 1 µM): 87.7% | viability, T/C (second compound 0.0316 µM, first compound 3.16 µM): 95.7% | viability, T/C (second compound 0.0316 µM, first compound 10 µM): 95.2% | viability, T/C (second compound 0.1 µM, first compound 0.0316 µM): 102% | viability, T/C (second compound 0.1 µM, first compound 0.1 µM): 91.8% | viability, T/C (second compound 0.1 µM, first compound 0.316 µM): 99.6% | viability, T/C (second compound 0.1 µM, first compound 1 µM): 86.6% | viability, T/C (second compound 0.1 µM, first compound 3.16 µM): 111% | viability, T/C (second compound 0.1 µM, first compound 10 µM): 114% | viability, T/C (second compound 0.316 µM, first compound 0.0316 µM): 92.2% | viability, T/C (second compound 0.316 µM, first compound 0.1 µM): 101% | viability, T/C (second compound 0.316 µM, first compound 0.316 µM): 86.1% | viability, T/C (second compound 0.316 µM, first compound 1 µM): 104% | viability, T/C (second compound 0.316 µM, first compound 3.16 µM): 101% | viability, T/C (second compound 0.316 µM, first compound 10 µM): 108% | viability, T/C (second compound 1 µM, first compound 0.0316 µM): 90.5% | viability, T/C (second compound 1 µM, first compound 0.1 µM): 104% | viability, T/C (second compound 1 µM, first compound 0.316 µM): 95.6% | viability, T/C (second compound 1 µM, first compound 1 µM): 102% | viability, T/C (second compound 1 µM, first compound 3.16 µM): 89.8% | viability, T/C (second compound 1 µM, first compound 10 µM): 109% | viability, T/C (second compound 3.16 µM, first compound 0.0316 µM): 81.1% | viability, T/C (second compound 3.16 µM, first compound 0.1 µM): 104% | viability, T/C (second compound 3.16 µM, first compound 0.316 µM): 92.3% | viability, T/C (second compound 3.16 µM, first compound 1 µM): 98.1% | viability, T/C (second compound 3.16 µM, first compound 3.16 µM): 108% | viability, T/C (second compound 3.16 µM, first compound 10 µM): 97.5% | viability, T/C (second compound 10 µM, first compound 0.0316 µM): 80.8% | viability, T/C (second compound 10 µM, first compound 0.1 µM): 89.5% | viability, T/C (second compound 10 µM, first compound 0.316 µM): 104% | viability, T/C (second compound 10 µM, first compound 1 µM): 88% | viability, T/C (second compound 10 µM, first compound 3.16 µM): 98.9% | viability, T/C (second compound 10 µM, first compound 10 µM): 90.7%

Cn1cnc2c(F)c(Nc3ccc(Br)cc3Cl)c(C(=O)NOCCO)cc21 + Cc1nc(NC(=O)N2CCCC2C(N)=O)sc1-c1ccnc(C(C)(C)C(F)(F)F)c1
IC50 (second compound 0.0316 µM): > 3000 nM | IC50 (second compound 0.1 µM): > 3000 nM | IC50 (second compound 0.316 µM): 2990 nM | IC50 (second compound 1 µM): 760 nM | IC50 (second compound 3.16 µM): 463 nM | IC50 (second compound 10 µM): 77 nM | viability, T/C (second compound 0.0316 µM, first compound 0.00949 µM): 102% | viability, T/C (second compound 0.0316 µM, first compound 0.03 µM): 81.9% | viability, T/C (second compound 0.0316 µM, first compound 0.0949 µM): 85.7% | viability, T/C (second compound 0.0316 µM, first compound 0.3 µM): 75.7% | viability, T/C (second compound 0.0316 µM, first compound 0.949 µM): 76.6% | viability, T/C (second compound 0.0316 µM, first compound 3 µM): 61.8% | viability, T/C (second compound 0.1 µM, first compound 0.00949 µM): 91.7% | viability, T/C (second compound 0.1 µM, first compound 0.03 µM): 78.7% | viability, T/C (second compound 0.1 µM, first compound 0.0949 µM): 93.2% | viability, T/C (second compound 0.1 µM, first compound 0.3 µM): 73.2% | viability, T/C (second compound 0.1 µM, first compound 0.949 µM): 74.6% | viability, T/C (second compound 0.1 µM, first compound 3 µM): 58% | viability, T/C (second compound 0.316 µM, first compound 0.00949 µM): 89.4% | viability, T/C (second compound 0.316 µM, first compound 0.03 µM): 89.8% | viability, T/C (second compound 0.316 µM, first compound 0.0949 µM): 73.4% | viability, T/C (second compound 0.316 µM, first compound 0.3 µM): 72.9% | viability, T/C (second compound 0.316 µM, first compound 0.949 µM): 64.3% | viability, T/C (second compound 0.316 µM, first compound 3 µM): 48.3% | viability, T/C (second compound 1 µM, first compound 0.00949 µM): 79.9% | viability, T/C (second compound 1 µM, first compound 0.03 µM): 89.3% | viability, T/C (second compound 1 µM, first compound 0.0949 µM): 69% | viability, T/C (second compound 1 µM, first compound 0.3 µM): 63.9% | viability, T/C (second compound 1 µM, first compound 0.949 µM): 47% | viability, T/C (second compound 1 µM, first compound 3 µM): 35.9% | viability, T/C (second compound 3.16 µM, first compound 0.00949 µM): 75.8% | viability, T/C (second compound 3.16 µM, first compound 0.03 µM): 73.6% | viability, T/C (second compound 3.16 µM, first compound 0.0949 µM): 66.2% | viability, T/C (second compound 3.16 µM, first compound 0.3 µM): 59.9% | viability, T/C (second compound 3.16 µM, first compound 0.949 µM): 36.4% | viability, T/C (second compound 3.16 µM, first compound 3 µM): 23.8% | viability, T/C (second compound 10 µM, first compound 0.00949 µM): 83.9% | viability, T/C (second compound 10 µM, first compound 0.03 µM): 67% | viability, T/C (second compound 10 µM, first compound 0.0949 µM): 45.6% | viability, T/C (second compound 10 µM, first compound 0.3 µM): 28.2% | viability, T/C (second compound 10 µM, first compound 0.949 µM): 18.7% | viability, T/C (second compound 10 µM, first compound 3 µM): 5.93%

Reference: PubChem BioAssay AID1963980 (Molecular Pharmacology Branch, DTP, NCI, 2024)
